In experiment [1] the test system is Plenodomus lingam. The experiment in a line: Specific activity of Leptosphaeria maculans brassinin oxidase.
Experiment [2] deals with Plenodomus lingam. The experiment in a line: Antifungal activity against Leptosphaeria maculans BJ 125 at 0.50 mM. Type of experiment: functional.
In experiment [3] the test system is Plenodomus lingam. The experiment in a line: Antifungal activity against Leptosphaeria maculans BJ 125 at 0.20 mM. Type of experiment: functional.
For experiment [4], the system named is Plenodomus lingam. The experiment in a line: Antifungal activity against Leptosphaeria maculans BJ 125 at 0.10 mM. Type of experiment: functional.

Here are results for 15 compounds from ChEMBL document CHEMBL1143751, “Isosteric probes provide structural requirements essential for detoxification of the phytoalexin brassinin by the fungal pathogen Leptosphaeria maculans” (2007).

Active and inactive are the calls of the source. No cut-off for these calls is given here.

In the case of `COC(=O)N(C)Cc1c[nH]c2ccccc12`, the result in experiment [1] was inactive.

Turning to `CC(=O)NCc1c[nH]c2ccccc12`, the result in experiment [1] was inactive. The compound `CCSC(=S)NCc1c[nH]c2ccccc12` showed an Activity in experiment [1] of 434 mU/mg. Besides, testing at 500 µM in experiment [2] gave an inhibition of 100%. In experiment [3], the inhibition – broadly, the percentage by which the read-out fell short of the control – at 200 µM stood at 76%. In experiment [4], this compound registered an inhibition at 100 µM of 28%. Consider `CCCSC(=S)NCc1c[nH]c2ccccc12`, for which the outcome in experiment [1] was inactive. This compound also registered an inhibition at 500 µM in experiment [2] of 100%. The compound also had an inhibition at 200 µM in experiment [3] of 100%. Besides, testing at 100 µM in experiment [4] gave an inhibition of 78%. `CNC(=S)NCc1c[nH]c2ccccc12`: in experiment [1], the Activity was determined as 2560 mU/mg. On the same count and under the same terms, as for `CSC(=S)NCc1cn(C)c2ccccc12`, the figure is 944 mU/mg; as for `CSC(=S)NCCc1c[nH]c2ccccc12`, “inactive”. `CSC(=S)NCc1c[nH]c2ccccc12` [BRASSININ] had an Activity in experiment [1] of 835 mU/mg. Moreover, the inhibition at 500 µM in experiment [2] amounted to 100%. In addition, at 200 µM the inhibition in experiment [3] was 45%. In experiment [4], the result was inactive. With `COC(=O)NCc1c[nH]c2ccccc12`, in experiment [1], the Activity is 4060 mU/mg. The same measure, in the same setting: as for `CNC(=O)NCc1c[nH]c2ccccc12`, the figure is 3280 mU/mg.

As for `CSC(=S)N(C)Cc1c[nH]c2ccccc12`, the result in experiment [1] was inactive. Also, the inhibition at 500 µM in experiment [2] turned out to be 100%. In addition, testing at 200 µM in experiment [3] gave an inhibition of 100%. In experiment [4], this compound registered an inhibition at 100 µM of 74%.

In experiment [1], `CSC(=O)NCc1c[nH]c2ccccc12` yielded an Activity of 2150 mU/mg.

On to `CSC(=S)OCCc1c[nH]c2ccccc12`, for which, in experiment [1], the outcome was inactive. Same read-out and setting: the result for `CNC(=O)CCc1c[nH]c2ccccc12` reads “inactive”; that for `COC(=O)CCc1c[nH]c2ccccc12`, “inactive”.
